Results reported in patent publication US20050158271A1, “Pharmaceutical applications of hydrotropic polymer micelles” (priority 2000, published 2005).
≈ marks a conversion by molar mass, not a printed value.

What was measured:
[1] = system: HT-29; assay: Antitumor cytotoxicity (ED50), HT-29; format: cell-based; conditions: HT-29 tumor cell line
Procedure: (§1) The antitumor cytotoxicities, as measured by ED50, of polymeric micelles on various cell lines were measured as shown in Table 7. […] Free paclitaxel and doxorubicin in ethanol were used as positive controls. The ED50 values of hydrotropic micelles are much lower than PLA-PEG and PPA-PEG micelles.

[2] = system: MDA231; assay: Antitumor cytotoxicity (ED50), MDA231; format: cell-based; conditions: MDA231 tumor cell line
Procedure: as §1

[3] = system: MCF-7; assay: Antitumor cytotoxicity (ED50), MCF-7; format: cell-based; conditions: MCF-7 tumor cell line
Procedure: as §1

[4] = system: SKOV-3; assay: Antitumor cytotoxicity (ED50), SKOV-3; format: cell-based; conditions: SKOV-3 tumor cell line
Procedure: as §1

[5] = Aqueous solubility of paclitaxel (intrinsic, clinical vehicle, hydrotropic agents)
From the text: The molecular structures of these hydrotropic agents are shown below.

[6] = 50:50 mixture of Cremophore EL and dehydrated ethanol, diluted in isotonic saline; cited from earlier work

## COc1cccc2c1C(=O)c1c(O)c3c(c(O)c1C2=O)C[C@@](O)(C(=O)CO)C[C@@H]3O[C@H]1C[C@H](N)[C@H](O)[C@H](C)O1 [Doxorubicin]
[1]
  ED50 HT-29: 0.044 µg/mL (≈ 0.081 µM)
[2]
  ED50 MDA231: 0.050 µg/mL (≈ 0.092 µM)
[3]
  ED50 MCF-7: 0.773 µg/mL (≈ 1.42 µM)
[4]
  ED50 SKOV-3: 0.611 µg/mL (≈ 1.12 µM)

## CC(=O)O[C@H]1C(=O)[C@@]2(C)[C@H]([C@H](OC(=O)c3ccccc3)[C@]3(O)C[C@H](OC(=O)[C@H](O)[C@@H](NC(=O)c4ccccc4)c4ccccc4)C(C)=C1C3(C)C)[C@]1(OC(C)=O)CO[C@@H]1C[C@@H]2O [Paclitaxel, paclitaxel]
[5]
  increase in aqueous solubility over the intrinsic solubility: 5˜6 orders of magnitude
[1]
  ED50 HT-29: 0.003 µg/mL (≈ 0.00351 µM)
[2]
  ED50 MDA231: 0.033 µg/mL (≈ 0.0386 µM)
[3]
  ED50 MCF-7: 0.043 µg/mL (≈ 0.0504 µM)
[4]
  ED50 SKOV-3: 0.006 µg/mL (≈ 0.00703 µM)
[6]
  paclitaxel solubility in formulation: ≤ 1200 µg/mL

## O=C([O-])c1ccccc1O.[Na+] [sodium salicylate, Sodium salicylate]
[5]; hydrotrope screening, in words
  hydrotropic property for paclitaxel (ability to increase aqueous paclitaxel solubility): excellent hydrotropes for paclitaxel
